From patent publication US8080665B2 (Chugai Seiyaku Kabushiki Kaisha, priority 2003, dated 2011)

Target: T1, hMCD (Homo sapiens, UniProt O95822)
T1 sequence (O95822 40-493): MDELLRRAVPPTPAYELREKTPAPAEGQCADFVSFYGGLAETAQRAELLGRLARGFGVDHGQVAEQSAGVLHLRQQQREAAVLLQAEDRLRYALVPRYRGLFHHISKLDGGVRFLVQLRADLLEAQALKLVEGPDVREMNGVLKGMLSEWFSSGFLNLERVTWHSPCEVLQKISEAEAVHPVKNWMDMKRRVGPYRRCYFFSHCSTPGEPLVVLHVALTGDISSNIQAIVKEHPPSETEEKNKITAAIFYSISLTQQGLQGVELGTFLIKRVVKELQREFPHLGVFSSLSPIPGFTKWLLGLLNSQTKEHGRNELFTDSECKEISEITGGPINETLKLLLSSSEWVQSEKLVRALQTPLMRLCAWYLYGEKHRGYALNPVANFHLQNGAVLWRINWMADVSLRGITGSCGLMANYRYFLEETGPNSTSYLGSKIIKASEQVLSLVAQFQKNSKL
Test: In vitro MCD inhibitory assay
Format: biochemical
Details: read-out: Ki, in vitro MCD inhibitory activities
Text: In Vitro MCD Inhibitory Assay
As shown in eq. 1-3, the establishment of the kinetic equilibrium between malate/NAD and oxaloacetate/NADH was catalyzed by malic dehydrogenase (eq. 2). […] The accumulation of NADH can be continuously followed by monitoring the increase of fluorescence emission at 460 nm on a fluorescence plate reader. The fluorescence plate reader was calibrated using the authentic acetyl-CoA from Sigma. For a typical 96-well plate assay, the increase in the fluorescence emission (λex=360 nm, λem=460 nm, for NADH) in each well was used to calculate the initial velocity of hMCD. Each 50 μL assay contained 10 mM phosphate buffered saline (Sigma), pH 7.4, 0.05% Tween-20, 25 mM K2HPO4—KH2PO4 (Sigma), 2 mM Malate (Sigma), 2 mM NAD (Boehringer Mannheim), 0.786 units of MD (Roche Chemicals), 0.028 unit of CS (Roche Chemicals), 5-10 nM hMCD, and varying amounts of MCA substrate. Assays were initiated by the addition of MCA, and the rates were corrected for the background rate determined in the absence of hMCD.
Work on `CC(C)N(C(=O)NC1CCN(C(=O)OCc2ccccc2)CC1)c1ccc2nc(S)sc2c1` [CBM-000302130] yielded a Ki of 0.011 µM. With `CC(C)N(C(=O)NC1CCN(CCCC(F)(F)F)CC1)c1ccc2nc(S)sc2c1` [CBM-000302182] the Ki was 0.08 µM. Work on `CC(C)N(C(=O)NC1CCN(S(=O)(=O)C(C)C)CC1)c1ccc2nc(S)sc2c1` [CBM-000302215, 1-Isopropyl-1-(2-mercapto-benzothiazol-6-yl)-3-[1-(propane-2-sulfonyl)-piperidin-4-yl]-urea] yielded a Ki of 0.0191 µM. For `CCCCOc1ccc(C(=O)N2CCC(NC(=O)N(c3ccc4nc(S)sc4c3)C(C)C)CC2)cc1` [CBM-000302216], the Ki was 0.0881 µM. `CC(C)N(C(=O)NC1CCN(C(=O)c2ccc(C(F)(F)F)cc2)CC1)c1ccc2nc(S)sc2c1` [CBM-000302217] gave a Ki of 0.0423 µM. For `CC(C)N(C(=O)NC1CCN(C(=O)COc2ccccc2)CC1)c1ccc2nc(S)sc2c1` [CBM-000302218], the Ki was 0.0074 µM. `CC(C)N(C(=O)NC1CCN(C(=O)Nc2ccc(C(F)(F)F)cc2)CC1)c1ccc2nc(S)sc2c1` [CBM-000302219] gave a Ki of 0.0305 µM. With `CC(C)N(C(=O)NC1CCN(C(=O)CCc2ccccc2)CC1)c1ccc2nc(S)sc2c1` [CBM-000302220] the Ki was 0.0204 µM. `CCCNC(=O)N1CCC(NC(=O)N(c2ccc3nc(S)sc3c2)C(C)C)CC1` [CBM-000302274] showed a Ki of 0.0406 µM. `CC(C)N(C(=O)NC1CCN(C(=O)CCC2CCCC2)CC1)c1ccc2nc(S)sc2c1` [CBM-000302275] showed a Ki of 0.0224 µM. Work on `CCCCS(=O)(=O)N1CCC(NC(=O)N(c2ccc3nc(S)sc3c2)C(C)C)CC1` [CBM-000302276] yielded a Ki of 0.0007 µM. For `CC(C)N(C(=O)NC1CCN(S(=O)(=O)c2ccccc2)CC1)c1ccc2nc(S)sc2c1` [CBM-000302277], the Ki was 0.0028 µM. `CC(C)N(C(=O)NC1CCN(S(=O)(=O)c2ccc(OC(F)(F)F)cc2)CC1)c1ccc2nc(S)sc2c1` [CBM-000302278] gave a Ki of 0.105 µM. In the case of `CC(C)N(C(=O)NC1CCN(S(=O)(=O)c2ccc(C(F)(F)F)cc2)CC1)c1ccc2nc(S)sc2c1` [CBM-000302279], the Ki is reported as 0.0616 µM. With `CC(C)N(C(=O)NC1CCN(S(=O)(=O)c2cccc(C(F)(F)F)c2)CC1)c1ccc2nc(S)sc2c1` [CBM-000302280] the Ki was 0.0026 µM. `CC(C)CCC(=O)N1CCC(NC(=O)N(c2ccc3nc(S)sc3c2)C(C)C)CC1` [CBM-000302313, 1-isopropyl-1-(2-mercapto-benzothiazole-6-yl)-3-[1-(4-methyl-pentanolyl)-piperidin-4-yl]-urea] gave a Ki of 0.0235 µM. Molecule `CCCC(=O)N1CCC(NC(=O)N(c2ccc3nc(S)sc3c2)C(C)C)CC1` [CBM-000302314] has a Ki of 0.0585 µM. For `COC(=O)CCC(=O)N1CCC(NC(=O)N(c2ccc3nc(S)sc3c2)C(C)C)CC1` [CBM-000302316], the Ki was 0.0996 µM. `CC(C)N(C(=O)NC1CCN(S(=O)(=O)c2cccc(Cl)c2)CC1)c1ccc2nc(S)sc2c1` [CBM-000302342] gave a Ki of 0.0007 µM. With `CC(C)N(C(=O)NC1CCN(S(=O)(=O)c2cccc(C#N)c2)CC1)c1ccc2nc(S)sc2c1` [CBM-000302343] the Ki was 0.0038 µM. With `CC(C)N(C(=O)NC1CCN(S(=O)(=O)c2ccc(C(C)(C)C)cc2)CC1)c1ccc2nc(S)sc2c1` [CBM-000302344] the Ki was 0.133 µM. With `CC(C)N(C(=O)NC1CCN(C(=O)c2ccc(F)cc2)CC1)c1ccc2nc(S)sc2c1` [CBM-000302348] the Ki was 0.0407 µM. Work on `COc1ccc(C(=O)N2CCC(NC(=O)N(c3ccc4nc(S)sc4c3)C(C)C)CC2)cc1` [CBM-000302359] yielded a Ki of 0.0072 µM. `CC(C)N(C(=O)NC1CCN(C(=O)c2ccco2)CC1)c1ccc2nc(S)sc2c1` [CBM-000302360] showed a Ki of 0.024 µM. `CC(C)N(C(=O)NC1CCN(c2ccc(OC(F)(F)F)cc2)CC1)c1ccc2nc(S)sc2c1` [CBM-000302361] gave a Ki of 0.0872 µM. `CC(C)Oc1ccc(S(=O)(=O)N2CCC(NC(=O)N(c3ccc4nc(S)sc4c3)C(C)C)CC2)cc1` [CBM-000302368] showed a Ki of 0.624 µM. With `CC(C)N(C(=O)NC1CCN(S(=O)(=O)c2cccc(F)c2)CC1)c1ccc2nc(S)sc2c1` [CBM-000302369] the Ki was 0.0028 µM. Work on `CCCc1ccc(S(=O)(=O)N2CCC(NC(=O)N(c3ccc4nc(S)sc4c3)C(C)C)CC2)cc1` [CBM-000302384] yielded a Ki of 0.0661 µM. `COc1cccc(S(=O)(=O)N2CCC(NC(=O)N(c3ccc4nc(S)sc4c3)C(C)C)CC2)c1` [CBM-000302386] gave a Ki of 0.0013 µM. Work on `CC(C)c1ccc(S(=O)(=O)N2CCC(NC(=O)N(c3ccc4nc(S)sc4c3)C(C)C)CC2)cc1` [CBM-000302387] yielded a Ki of 0.125 µM. With `CC(=O)c1ccc(S(=O)(=O)N2CCC(NC(=O)N(c3ccc4nc(S)sc4c3)C(C)C)CC2)cc1` [CBM-000302389] the Ki was 0.0843 µM. `CCc1ccc(S(=O)(=O)N2CCC(NC(=O)N(c3ccc4nc(S)sc4c3)C(C)C)CC2)cc1` [CBM-000302404] gave a Ki of 0.0275 µM. Molecule `CC(C)N(C(=O)NC1CCN(S(=O)(=O)Cc2ccccc2)CC1)c1ccc2nc(S)sc2c1` [CBM-000302405] has a Ki of 0.0078 µM. With `CC(C)N(C(=O)NC1CCN(S(=O)(=O)c2ccc(F)c(Cl)c2)CC1)c1ccc2nc(S)sc2c1` [CBM-000302406] the Ki was 0.0014 µM. With `COc1ccc(S(=O)(=O)N2CCC(NC(=O)N(c3ccc4nc(S)sc4c3)C(C)C)CC2)cc1` [CBM-000302407] the Ki was 0.0175 µM. Work on `CC(C)N(C(=O)NC1CCN(S(=O)(=O)c2ccc(C#N)cc2)CC1)c1ccc2nc(S)sc2c1` [CBM-000302424] yielded a Ki of 0.123 µM. `CC(C)N(C(=O)NC1CCN(S(=O)(=O)c2ccc(F)cc2)CC1)c1ccc2nc(S)sc2c1` [CBM-000302425] showed a Ki of 0.0014 µM. Work on `CC(C)N(C(=O)NC1CCN(S(=O)(=O)c2cnc(Cl)c(Br)c2)CC1)c1ccc2nc(S)sc2c1` [CBM-000302426] yielded a Ki of 0.0193 µM.

System: Isolated Working Rat Hearts
Test: Glucose oxidation in isolated working rat hearts
Details: not given
Procedure: Isolated Working Rat Heart Assay Protocol
Isolated working hearts from male Sprague-Dawley rats (300-350 g) are subjected to a 60-minute aerobic perfusion period. The working hearts are perfused with 95% O2, 5% CO2 with a modified Krebs-Henseleit solution containing 5 mM glucose; 100 μU/mL insulin; 3% fatty acid-free BSA; 2.5 mM free Ca^2+, and 0.4 to 1.2 mmol/L palmitate (Kantor et al., Circulation Research 86:580-588 (2000)). The test compound is added 5 minutes before the perfusion period. DMSO (0.05%) is used as control.
Measurement of Glucose Oxidation Rates
Samples were taken at 10-minute intervals for measurements of experimental parameters. Glucose oxidation rates are determined by the quantitative collection of ^14CO2 produced by hearts perfused with buffer containing [U14]-Glucose (R. Barr and G. Lopaschuk, in “Measurement of cardiovascular function”, McNeill, J. H. ed., Chapter 2, CRC press, New York (1997)). After the perfusion, the ^14CO2 from the perfusae is subsequently released by injecting 1 mL of perfusate into sealed test tube containing 1 mL of 9NH2SO4. The tube was sealed with a rubber stopper attached to a scintillation vial containing a piece of filter papers saturated with 300 μl of hyamine hydroxide. The scintillation vials with filter papers were then removed and Ecolite Scintillation Fluid added. Samples were counted by standard procedures as described above. Average rates of glucose oxidation for each phase of perfusion are expressed as μmol/min/g dry wt as described above.
Active compounds are characterized by an increase in glucose oxidation and/or decrease in fatty acid oxidation as compared to the control experiments (DMSO). The compounds that caused statistically significant increases in glucose oxidation and/or decrease in fatty acid oxidation are considered to be active. Statistical significance was calculated using the Student's t test for paired or unpaired samples, as appropriate. The results with P<0.05 are considered to be statistically significant.
With `CC(C)N(C(=O)NC1CCN(C(=O)COc2ccccc2)CC1)c1ccc2nc(S)sc2c1` [CBM-000302218] the “GOX (%), glucose oxidation rate relative to DMSO (100%)” value was 236%. For `CCCCS(=O)(=O)N1CCC(NC(=O)N(c2ccc3nc(S)sc3c2)C(C)C)CC1` [CBM-000302276], the “GOX (%), glucose oxidation rate relative to DMSO (100%)” value was 310%. With `CC(C)N(C(=O)NC1CCN(S(=O)(=O)c2cccc(C(F)(F)F)c2)CC1)c1ccc2nc(S)sc2c1` [CBM-000302280] the “GOX (%), glucose oxidation rate relative to DMSO (100%)” value was 683%. In the case of `CN(C(=O)NC1CCN(S(=O)(=O)c2ccccc2)CC1)c1ccc2nc(S)sc2c1` [CBM-000302281, 3-(1-Benzenesulfonyl-piperidin-4-yl)-1-(2-mercapto-benzothiazol-6-yl)-1-methyl-urea], the “GOX (%), glucose oxidation rate relative to DMSO (100%)” value is reported as 190%. With `CC(C)N(C(=O)NC1CCN(S(=O)(=O)c2cccc(Cl)c2)CC1)c1ccc2nc(S)sc2c1` [CBM-000302342] the “GOX (%), glucose oxidation rate relative to DMSO (100%)” value was 285%. With `CC(C)N(C(=O)NC1CCN(S(=O)(=O)c2cccc(C#N)c2)CC1)c1ccc2nc(S)sc2c1` [CBM-000302343] the “GOX (%), glucose oxidation rate relative to DMSO (100%)” value was 177%.

System: muscle (M) isoform of CPT-I
Test: not given
Details: read-out: IC50 of malonyl-CoA inhibition of CPT-I; cited from earlier work
For `CC(C)(COP(=O)(O)OP(=O)(O)OC[C@H]1O[C@@H](n2cnc3c(N)ncnc32)[C@H](O)[C@@H]1OP(=O)(O)O)[C@@H](O)C(=O)NCCC(=O)NCCSC(=O)CC(=O)O` [Malonyl-CoA], the IC50 is listed as 0.03 µM.

System: breast carcinoma cells
Test: not given
Details: cited from earlier work
In the case of `CCCCCCCCCCCCCCOc1ccc(C(=O)O)o1` [TOFA, 5-(tetradecyloxy)-2-furoic acid], the “malonyl-CoA level, % of the control” value is listed as 60%.
